According to patent publication US20180193412A1, “Method of In Vivo Treatment” (Hexima Limited, priority 2015, published 2018):

Columns and labels:
[1] = tested on: T. rubrum; test: Inhibition of growth of Trichophyton rubrum by plant defensins (microtitre A595 antifungal assay); type: cell-based; settings: ½ strength PDB, 30° C.
Protocol: (§1) The inhibitory effects of the plant defensins on the growth of Trichophyton rubrum, T. interdigitale, Microsporum fulvum and C. albicans (all obtained from the National Mycology Reference Centre, South Australia Pathology at the Women's and Children's Hospital, Adelaide, Australia) are measured essentially as described by Broekaert et al. (1990) FEMS Microbiol Lett 69:55-59.
(§2) Spores of T. rubrum, T. interdigitale and M. fulvum are isolated from sporulating fungus growing on ½ strength Sabouraud dextrose agar. Spores were removed from the plates by the addition of ½ strength potato dextrose broth (PDB). C. albicans cells are grown in Yeast Peptone Broth (YPD) for 16 h. Spore and cell concentrations are measured using a hemocytometer.
(§3) Antifungal assays are conducted in 96 well microtitre plates essentially as herein described. Wells are loaded with 20 μL of filter sterilized (0.22 Ξ m syringe filter, Millipore) defensin (10× stock for each final concentration) or water and 80 μL of 5×10^4 spores/mL (T. rubrum, T. interdigitale, M. fulvum) or 5,000 cells/mL (C. albicans) in ½ strength PDB. The plates are incubated at 30° C. Fungal growth is assayed by measuring optical density at 595 nm (A595) using a microtitre plate reader (SpectraMax Pro M2; Molecular Devices. Growth is allowed to proceed until the optical density (OD) of the fungus in the absence of any test defensin reached an OD of 0.2. Each test is performed in duplicate.

[2] = tested on: M. fulvum; test: Inhibition of growth of Microsporum fulvum by plant defensins (microtitre A595 antifungal assay); type: cell-based; settings: ½ strength PDB, 30° C., A595
Protocol: as §1, §2, §3

[3] = tested on: T. albicans; test: Inhibition of growth of C. albicans by plant defensins, Example 1 (microtitre A595 antifungal assay); type: cell-based; settings: Table 3; ½ strength PDB, 30° C., A595
Protocol: as §1, §2, §3

[4] = tested on: C. albicans; test: Inhibition of growth of Candida albicans, Example 2 antifungal assay; type: cell-based; settings: Table 4; ½ strength PDB, 30° C., A595
Protocol: (§4) The inhibitory effects of the plant defensins on the growth of Candida albicans, Aspergillus fumigatus (obtained from the National Mycology Reference Centre, South Australia Pathology at the Women's and Children's Hospital, Adelaide, Australia), C. glabrata, C. tropicalis, A. flavus, A. niger, A. fumigants, Cryptococcus neoformans and C. gattii (obtained from Dee Carter, University of Sydney, New South Wales, Australia) are measured essentially as described by Broekaert et al. (1990) FEMS Microbiol Lett 69:55-59.
as §2, with “A. flavus. A. niger” for “T. rubrum, T. interdigitale”, “A. fumigatus” for “M. fulvum”, “albicans, C. glabrata, C. tropicalis, C. neoformans and C. gattii” for “albicans”
as §3, with “μm” for “Ξ m”, “(A. flavus, A. niger, A. fumigatus),” for “(T. rubrum, T. interdigitale, M. fulvum) or”, “albicans, C. glabrata, C. tropicalis) or 1×10^6 cells/mL (C. neoformans, C. gattii)” for “albicans)”

[5] = tested on: C. glabrata; test: Inhibition of growth of C. glabrata, Example 2 antifungal assay; type: cell-based; settings: ½ strength PDB, 30° C., A595
Protocol: as §4
as §2, with “A. flavus. A. niger” for “T. rubrum, T. interdigitale”, “A. fumigatus” for “M. fulvum”, “albicans, C. glabrata, C. tropicalis, C. neoformans and C. gattii” for “albicans”
as §3, with “μm” for “Ξ m”, “(A. flavus, A. niger, A. fumigatus),” for “(T. rubrum, T. interdigitale, M. fulvum) or”, “albicans, C. glabrata, C. tropicalis) or 1×10^6 cells/mL (C. neoformans, C. gattii)” for “albicans)”

[6] = tested on: C. tropicalis; test: Inhibition of growth of C. tropicalis, Example 2 antifungal assay; type: cell-based; settings: ½ strength PDB, 30° C., A595
Protocol: as §4
as §2, with “A. flavus. A. niger” for “T. rubrum, T. interdigitale”, “A. fumigatus” for “M. fulvum”, “albicans, C. glabrata, C. tropicalis, C. neoformans and C. gattii” for “albicans”
as §3, with “μm” for “Ξ m”, “(A. flavus, A. niger, A. fumigatus),” for “(T. rubrum, T. interdigitale, M. fulvum) or”, “albicans, C. glabrata, C. tropicalis) or 1×10^6 cells/mL (C. neoformans, C. gattii)” for “albicans)”

[7] = tested on: A. flavus; test: Inhibition of growth of A. flavus, Example 2 antifungal assay; type: cell-based; settings: ½ strength PDB, 30° C., A595
Protocol: as §4
as §2, with “A. flavus. A. niger” for “T. rubrum, T. interdigitale”, “A. fumigatus” for “M. fulvum”, “albicans, C. glabrata, C. tropicalis, C. neoformans and C. gattii” for “albicans”
as §3, with “μm” for “Ξ m”, “(A. flavus, A. niger, A. fumigatus),” for “(T. rubrum, T. interdigitale, M. fulvum) or”, “albicans, C. glabrata, C. tropicalis) or 1×10^6 cells/mL (C. neoformans, C. gattii)” for “albicans)”

[8] = tested on: A. niger; test: Inhibition of growth of A. niger, Example 2 antifungal assay; type: cell-based; settings: ½ strength PDB, 30° C., A595
Protocol: as §4
as §2, with “A. flavus. A. niger” for “T. rubrum, T. interdigitale”, “A. fumigatus” for “M. fulvum”, “albicans, C. glabrata, C. tropicalis, C. neoformans and C. gattii” for “albicans”
as §3, with “μm” for “Ξ m”, “(A. flavus, A. niger, A. fumigatus),” for “(T. rubrum, T. interdigitale, M. fulvum) or”, “albicans, C. glabrata, C. tropicalis) or 1×10^6 cells/mL (C. neoformans, C. gattii)” for “albicans)”

[9] = tested on: A. fumigatus; test: Inhibition of growth of Aspergillus fumigatus, Example 2 antifungal assay; type: cell-based; settings: ½ strength PDB, 30° C., A595
Protocol: as §4
as §2, with “A. flavus. A. niger” for “T. rubrum, T. interdigitale”, “A. fumigatus” for “M. fulvum”, “albicans, C. glabrata, C. tropicalis, C. neoformans and C. gattii” for “albicans”
as §3, with “μm” for “Ξ m”, “(A. flavus, A. niger, A. fumigatus),” for “(T. rubrum, T. interdigitale, M. fulvum) or”, “albicans, C. glabrata, C. tropicalis) or 1×10^6 cells/mL (C. neoformans, C. gattii)” for “albicans)”

[10] = tested on: C. neoformans; test: Inhibition of growth of Cryptococcus neoformans, Example 2 antifungal assay; type: cell-based; settings: ½ strength PDB, 30° C., A595
Protocol: as §4
as §2, with “A. flavus. A. niger” for “T. rubrum, T. interdigitale”, “A. fumigatus” for “M. fulvum”, “albicans, C. glabrata, C. tropicalis, C. neoformans and C. gattii” for “albicans”
as §3, with “μm” for “Ξ m”, “(A. flavus, A. niger, A. fumigatus),” for “(T. rubrum, T. interdigitale, M. fulvum) or”, “albicans, C. glabrata, C. tropicalis) or 1×10^6 cells/mL (C. neoformans, C. gattii)” for “albicans)”

[11] = tested on: C. gattii; test: Inhibition of growth of C. gattii, Example 2 antifungal assay; type: cell-based; settings: ½ strength PDB, 30° C., A595
Protocol: as §4
as §2, with “A. flavus. A. niger” for “T. rubrum, T. interdigitale”, “A. fumigatus” for “M. fulvum”, “albicans, C. glabrata, C. tropicalis, C. neoformans and C. gattii” for “albicans”
as §3, with “μm” for “Ξ m”, “(A. flavus, A. niger, A. fumigatus),” for “(T. rubrum, T. interdigitale, M. fulvum) or”, “albicans, C. glabrata, C. tropicalis) or 1×10^6 cells/mL (C. neoformans, C. gattii)” for “albicans)”

[12] = tested on: E. coli; type: cell-based, Escherichia coli; settings: for IC50: Mueller-Hinton Broth, 37° C., 18 hours, up to 20 μM, read-out: IC50 against E. coli
Protocol: (§5) A single E. coli or B. subtilis colony was used to inoculate 5 ml of Luria-Bertani media and grown overnight at 37° C. The following day, the optical density of the culture was measured and the bacteria diluted to an optical density at 600 nm (OD600) of 0.01 in Mueller-Hinton Broth. Diluted E. coli or B. subtilis were added to 96-well plates with defensins at concentrations of 20 μM, 10 μM, 5 μM, 2.5 μM, 1.25 μM, 0.625 μM or 0.3125 μM. Plates were read at OD595 to obtain time zero data points. Plates were incubated at 37° C. for 18 hours before reading again at OD595 to assess the amount of bacterial growth.

[13] = tested on: B. subtilis; test: Inhibition of the growth of Bacillus subtilis (OD595, 18 hours); type: cell-based; settings: for IC50: Mueller-Hinton Broth, 37° C., 18 hours, up to 20 μM, read-out: IC50 against B. subtilis
Protocol: as §5

[14] = tested on: Trichophyton rubrum, T. interdigitale, Microsporum fulvum and C. albicans; test: Inhibition assays of Example 1, summary across the range of fungal pathogens; type: cell-based; settings: summary of Table 3, at the concentrations tested
Protocol: as §1, §2, §3

[15] = tested on: T. interdigitale; test: Inhibition of growth of T. interdigitale by plant defensins (microtitre A595 antifungal assay); type: cell-based, Trichophyton interdigitale; settings: ½ strength PDB, 30° C.
Protocol: as §1, §2, §3

[16] = at the concentrations tested (0.3125-20 μM)

Compound | IC50 against T. rubrum [1] [µg/mL] | IC50 against M. fulvum [2] [µg/mL] | IC50 against T. albicans [3] [µg/mL] | IC50 against C. albicans [4] [µg/mL] | IC50 against C. glabrata [5] [µg/mL] | IC50 against C. tropicalis [6] [µg/mL] | IC50 against A. flavus [7] [µg/mL] | IC50 against A. niger [8] [µg/mL] | IC50 against A. fumigatus [9] [µg/mL] | IC50 against C. neoformans [10] [µg/mL] | IC50 against C. gattii [11] [µg/mL] | IC50 [12] [µM] | IC50 [13] [µM] | Activity across the range of fungal pathogens [14] | IC50 against T. interdigitale [15] [µg/mL] | Inhibition of growth of E. coli [12, 16] | Inhibition of growth of B. subtilis [13, 16]
HXL013: Class I plant defensin from Glycine max (KDCLTRRHGFQGRCLFDRQCAHVCRSDGFIGGQCRGPLRKCFCSRPC; HXL013 Glycine max) | 22 | 5.5 | 20 | 20 | 25 | 12 | >100 | >100 | >100 | 9 | 22 | > 20 | 10 | intermediate activity |  |  | 
NaD1: Solanaceous Class II plant defensin from Nicotiana alata (RECKTESNTFPGICITKPPCRKACISEKFTDGHCSKILRRCLCTKPC; NaD1 Nicotiana alata) | 8 | 5.3 | 20 | 20 | 14 | 2.5 | 20 | 16 | 8 | 3 | 5 | > 20 |  |  | 10 | did not inhibit the growth | did not inhibit the growth
HXL009: Class I plant defensin from Zea mays (TVCMRHNNFYHGPCMSNKDCANSCVQHNLGVGGYCRGKIPFNKECMCTFEC; HXL009 Zea mays) |  | >100 | >100 | >100 | >100 | 12 | >100 | >100 | >100 | 8 | 38 | > 20 | > 20 | did not display any activity |  |  | 
CC[C@H](C)[C@H](NC(=O)[C@H](CCCCN)NC(=O)[C@H](CCC(=O)O)NC(=O)[C@H](CCCCN)NC(=O)[C@H](CO)NC(=O)[C@H](CCCCN)NC(=O)[C@H](CCCNC(=N)N)NC(=O)[C@H](Cc1ccccc1)NC(=O)[C@H](Cc1ccccc1)NC(=O)[C@H](CC(=O)O)NC(=O)CNC(=O)[C@H](CC(C)C)NC(=O)[C@@H](N)CC(C)C)C(=O)NCC(=O)N[C@@H](CCCCN)C(=O)N[C@@H](CCC(=O)O)C(=O)N[C@@H](Cc1ccccc1)C(=O)N[C@@H](CCCCN)C(=O)N[C@@H](CCCNC(=N)N)C(=O)N[C@H](C(=O)N[C@H](C(=O)N[C@@H](CCC(N)=O)C(=O)N[C@@H](CCCNC(=N)N)C(=O)N[C@H](C(=O)N[C@@H](CCCCN)C(=O)N[C@@H](CC(=O)O)C(=O)N[C@@H](Cc1ccccc1)C(=O)N[C@@H](CC(C)C)C(=O)N[C@@H](CCCNC(=N)N)C(=O)N[C@@H](CC(N)=O)C(=O)N[C@@H](CC(C)C)C(=O)N[C@H](C(=O)N1CCC[C@H]1C(=O)N[C@@H](CCCNC(=N)N)C(=O)N[C@H](C(=O)N[C@@H](CCC(=O)O)C(=O)N[C@@H](CO)C(=O)O)[C@@H](C)O)C(C)C)[C@@H](C)CC)C(C)C)[C@@H](C)CC [LL37, reference compound] |  |  |  |  |  |  |  |  |  |  |  | 2.5 |  |  |  |  | 
